The values that follow come from patent publication US8329703B2, “Pyrazole compounds” (XTL Biopharmaceuticals Ltd., priority 2005, dated 2012).

Data set [1] concerns HCV RNA (HCV Replicon) in Huh-Luc-Neo cells. Put plainly: HCV Replicon RNA Assay (Taqman quantitative PCR). It is filed as cell-based. Conditions: Hepatitis C virus, 48 h, 2 compound treatments over 48 h, no unit printed in table (b307 gives IC50s in μM). The protocol:
(§1) The identification of inhibitors of HCV replication and/or proliferation has been facilitated by the development of a cell based system to study HCV replication and assay for HCV inhibitors. Inhibition of HCV replication may be performed using the HCV Replicon Assay developed in the laboratories of Bartenschlager (Lohman et al, Science 285, 110-113, 1999) and Rice (Blight et al, Science 290, 1972-1974, 2000). The assay is performed using the Huh-Luc-Neo cell line (Lohman et al, Science 285, 110-113, 1999). Huh-Luc-Neo cells are a human hepatoma cell line (Huh-7) stably expressing a bi-cistronic subgenomic replicon containing the HCV IRES in which the […] of HCV had been deleted and replaced by a construct containing sequences coding for the firefly luciferase reporter gene, the neomycin selectable marker and the EMCV IRES to direct expression of a truncated HCV genome expressing the […] NS3, NS4A, NS4B, NS5A, and NS5B. HCV targets through which inhibitors could act to inhibit replication include the NS3 protease, the helicase/ATPase, NS5A, the NS5B-RNA dependent RNA polymerase, and the HCV IRES.
(§2) Expression of HCV IRES driven luciferase reporter activity and HCV RNA is measured to obtain indirect and direct measures of replication of HCV RNA respectively. Inhibitors of HCV replication and/or proliferation are determined by initially identifying molecules that inhibit expression of the HCV IRES driven luciferase reporter in this HCV Replicon Luciferase Assay. Cell viability assays and control cell based luciferase assays are then run on hits identified in the HCV Replicon Luciferase Assay to eliminate cytoxic compounds and non-specific compounds which act by inhibiting the luciferase enzyme.
Day 0, Cell Seeding and Compound Treatment: Huh-Luc-Neo Cells are seeded at 25,000/well in an opaque-walled 96 plate with Growth Medium (DMEM phenol red free+PS+2 mM glutamine; 100 μl/well). The compounds to be tested are added to the experimental wells (10 μl/well at 10× assay concentration) and the cells are then incubated (5% CO2, 37° C.).
Day 1, Media Change and Compound Treatment: 24 hours after the initial compound treatment the cell culture media is aspirated from the wells and fresh Growth Medium is added (DMEM phenol red free+PS+2 mM glutamine; 100 μl/well). The compounds to be tested are then added to the appropriate experimental wells (10 μl/well at 10× assay concentration) and the cells are then incubated (5% CO2, 37° C.) for an additional 24 hrs.
Day 2, RNA Isolation and cDNA Synthesis: The cells are washed with 1× Phosphate Buffered Saline (PBS) once.
(§3) Day 3, Quantitative PCR Based Measurement of HCV RNA (Taqman Assay): Quantitative PCR analysis to measure HCV RNA expression from cDNA synthesized on Day 2 is performed using the ABI 9700 HT Sequence Detection System (Applied Biosystems) as previously described (Lohman et al, Science 285, 110-113, 1999). The data is analyzed and IC50s are determined using GraphPad Prism 4 software. Hits validated in the Replicon RNA Assay have IC50s<8.0 μM and show <30% inhibition of Cell Viability at a compound concentration of 50 μM (Cell Titer Glow Assay, cell viability assay conditions identical to HCV Replicon RNA Assay conditions).
In general terms: In antiviral work, replicon cells carry a viral genome segment that copies itself.

Data set [2] deals with HCV Replicon (HCV IRES driven luciferase reporter) in Huh-Luc-Neo cells. Put plainly: HCV Replicon Luciferase Assay. The data set is classed as cell-based. Conditions: Hepatitis C virus, 48 h, Huh-Luc-Neo cells, no unit printed in table (b301 gives IC50s in μM), read-out: Luciferase IC50. The procedure:
as §1, §2
Day 0, Cell Seeding and Compound Treatment: Huh-Luc-Neo Cells are seeded at 25,000/well in an opaque-walled 96 plate with Growth Medium (DMEM phenol red free+PS+2 mM glutamine; 100 μl/well). The compounds to be tested are added to the experimental wells (10 μl/well at 10× assay concentration) and the cells are then incubated (5% CO2, 37° C.) for 48 h.
(§4) Day 2, Reagent Preparation and Luciferase Assay: The Bright-Glo Luciferase Assay Buffer (Promega) is thawed and equilibrated to room temperature prior to use. The lyophilized Bright-Glo Luciferase Assay Substrate is equilibrated to room temperature prior to use. 10 ml of Bright-Glo Luciferase Assay Buffer is transferred to 1 vial of Bright-Glo Luciferase Assay Substrate bottle and mixed by gently with a Vortex. 100 ul of Bright-Glo Luciferase Assay reagent (Bright-Glo Luciferase Assay Buffer+Bright-Glo Luciferase Assay Substrate Mixture) is added to each well. The well contents are mixed for 5 min. on an orbital shaker at room temperature to induce cell lysis and the luminescence is then measured using a luminometer. The data is analyzed and IC50s are determined using GraphPad Prism 4 software. Hits validated in the Replicon Luciferase assay have IC50s<8.0 μM and show <30% inhibition of Cell Viability at a compound concentration of 100 μM (Cell Titer Glow Assay, cell viability assay conditions identical to HCV Replicon Luciferase Assay conditions).

The next data set relates to Huh-Luc-Neo cells. As to the kind of experiment: Cell Titer-Glo Cell Viability Assay. The data set is classed as cell-based, human. Conditions: for Toxicity % Inhibition at 50 μM (2 doses): inhibition of cell viability at 50 μM, conditions identical to HCV Replicon RNA Assay; for Toxicity % Inhibition at 100 μM (1 dose): inhibition of cell viability at 100 μM, conditions identical to HCV Replicon Luciferase Assay (48 h). The procedure:
as §4, §3
Day 0, Cell Seeding and Compound Treatment: Huh-Luc-Neo Cells are seeded at 25,000/well in an opaque-walled 96 plate with Growth Medium (DMEM phenol red free+PS+2 mM glutamine; 100 ul/well).
Day 2, Reagent Preparation and Assay: The CellTiter-Glo Buffer is thawed and equilibrated to room temperature prior to use. The lyophilized CellTiter-Glo Substrate is equilibrated to room temperature prior to use. 10 ml of CellTiter-Glo Buffer is transferred to 1 vial of CellTiter-Glo Substrate and mixed by gently with a Vortex. 100 μl of CellTiter-Glo Assay reagent (CellTiter-Glo Buffer+CellTiter-Glo Substrate Mixture) is added to each well. The well contents are mixed for 5 min. on an orbital shaker at room temperature to induce cell lysis and the luminescence is then measured using a luminometer.

The IC50 is the concentration needed to halve the response being measured.

With `Cn1nc(-c2ccccc2O)c(C#CCCCC#N)c1-c1ccccc1` [VQ_30716], the values for the IC50 in data set [1] and in data set [2] were 0.11 µM and 3.96 µM, respectively. Moreover, the “Toxicity % Inhibition at 50 μM (2 doses)” value in the data set on Huh-Luc-Neo cells is recorded as 6.8%. The “Toxicity % Inhibition at 100 μM (1 dose)” value with Huh-Luc-Neo cells is on record as 13.7%.
For the molecule `Cn1cc(C#CC(C)(C)C)c(-c2cc([N+](=O)[O-])ccc2OCc2c(F)cccc2F)n1` [VQ_33518], in data set [1], the half-maximal inhibitory concentration (IC50) was found to be 0.42 µM. For the same molecule, in data set [2], the half-maximal inhibitory concentration (IC50) was 1.85 µM. In the data set on Huh-Luc-Neo cells, the “Toxicity % Inhibition at 50 μM (2 doses)” value turned out to be 22.8% and the “Toxicity % Inhibition at 100 μM (1 dose)” value came to 40.4%.
For `Cn1cc(CCC(C)(C)C)c(-c2cc(NC(=O)c3cccc(Cl)c3F)ccc2O)n1` [VQ_34072] the same measures were 1.09 µM, 2.87 µM, 6.2% and 4.2%.
Turning to `COc1ccc(O)c(-c2nn(C)cc2C#CC(C)(C)C)c1` [VQ_34145], the IC50 in data set [1] is 0.82 µM; in data set [2], 1.87 µM. Moreover, the “Toxicity % Inhibition at 50 μM (2 doses)” value in the data set on Huh-Luc-Neo cells was determined as 13.1%. For the same molecule, in the data set with Huh-Luc-Neo cells, the “Toxicity % Inhibition at 100 μM (1 dose)” value was found to be 19.8%.
In data set [1], `Cn1nc(-c2cc(Br)ccc2O)c(C#CC(C)(C)C)c1C#CCCCC#N` [VQ_34298] showed a 50% inhibitory concentration (IC50) of 3.86 µM. The IC50 in data set [2] was determined as 5.5 µM. In addition, in the data set with Huh-Luc-Neo cells, the “Toxicity % Inhibition at 50 μM (2 doses)” value was 23.9% and the “Toxicity % Inhibition at 100 μM (1 dose)” value was 18.3%.
On to `Cn1cc(C#CC(C)(C)C)c(-c2cc(C#Cc3ccc(Cl)cc3)ccc2O)n1` [VQ_34394], for which the IC50 in data set [1] came out at 1.07 µM; in data set [2], 4.8 µM. In addition, the “Toxicity % Inhibition at 50 μM (2 doses)” value with Huh-Luc-Neo cells is recorded as 24.5%. Further, in the data set on Huh-Luc-Neo cells, the “Toxicity % Inhibition at 100 μM (1 dose)” value stood at 31.8%.
`Cn1cc(C#CC(C)(C)C)c(-c2cc(C#CCC3CCCCC3)ccc2O)n1` [VQ_34395] had a half-maximal inhibitory concentration (IC50) in data set [1] of 0.68 µM. The 50% inhibitory concentration (IC50) in data set [2] amounted to 3.7 µM. Also, in the data set with Huh-Luc-Neo cells, the “Toxicity % Inhibition at 50 μM (2 doses)” value worked out at 23.6% and the “Toxicity % Inhibition at 100 μM (1 dose)” value is on record as 45.4%.
`Cn1cc(C#CC2CC2)c(-c2cc(Br)ccc2O)n1` [VQ_34432] displayed an IC50 in data set [1] of 0.82 µM. Also, the IC50 in data set [2] came to 11.5 µM. Moreover, in the data set with Huh-Luc-Neo cells, the “Toxicity % Inhibition at 50 μM (2 doses)” value came to 8.2% and the “Toxicity % Inhibition at 100 μM (1 dose)” value was 45.5%.
For the molecule `Cn1cc(C#CC(C)(C)C)c(-c2cc(-c3cccc(Cl)c3)ccc2O)n1` [VQ_35543], the IC50 in data set [1] is 2.16 µM. The 50% inhibitory concentration (IC50) in data set [2] worked out at 10.1 µM. For the same molecule, in the data set with Huh-Luc-Neo cells, the “Toxicity % Inhibition at 50 μM (2 doses)” value came to 8.2% and the “Toxicity % Inhibition at 100 μM (1 dose)” value came out at 25.3%.
With `Cn1cc(C#CC(C)(C)C)c(-c2cc(NC(=O)c3ccc(Cl)c(Cl)c3)ccc2O)n1` [VQ_35556], 0.99 µM corresponded to half-maximal inhibition in data set [1] (IC50). Also, in data set [2], the IC50 came to 9.3 µM. In the data set with Huh-Luc-Neo cells, the “Toxicity % Inhibition at 50 μM (2 doses)” value was 13.7% and the “Toxicity % Inhibition at 100 μM (1 dose)” value worked out at 28.8%.
